Measurements taken from patent US7884071B2, “Administration form for pharmaceutically active peptides with sustained release and method for the production thereof” (Zentaris GmbH, priority 2002, dated 2011).
Counter-ions that a name gives are not always drawn. Where a SMILES comes first, the peptide text is derived from it. [ ]: non-standard residue; d: D form. dPhe(4-Cl) = N[C@H](Cc1ccc(Cl)cc1)C(=O)O; d2Nal = N[C@H](Cc1ccc2ccccc2c1)C(=O)O; d(hCit) = NC(=O)NCCCC[C@@H](N)C(=O)O; NMeY = CN[C@@H](Cc1ccc(O)cc1)C(=O)O; d3Pal = N[C@H](Cc1cccnc1)C(=O)O; Nle = CCCC[C@H](N)C(=O)O

Experiment: Fig. 6: Physicochemical data on D-63 153
From the text: Table printed on a drawing sheet, Fig. 6
Title: Fig. 6: Physicochemical data on D-63 153
First reader's note: Unruled property list for a single peptide; the value of 'Structural formula:' is a chemical drawing and is left empty.

For CCCC[C@H](NC(=O)[C@@H](CCCCNC(N)=O)NC(=O)[C@H](Cc1ccc(O)cc1)N(C)C(=O)[C@H](CO)NC(=O)[C@@H](Cc1cccnc1)NC(=O)[C@@H](Cc1ccc(Cl)cc1)NC(=O)[C@@H](Cc1ccc2ccccc2c1)NC(C)=O)C(=O)N[C@@H](CCCNC(=N)N)C(=O)N1CCC[C@H]1C(=O)N[C@H](C)C(N)=O [D-63153 (e.g. acetate salt), Ac-D-Nal(2)-D-Cpa-D-Pal(3)-Ser-N-Me-Tyr-D-Hci- Nle-Arg-Pro-D-Ala-NH2] (Ac-[d2Nal][dPhe(4-Cl)][d3Pal]S[NMeY][d(hCit)][Nle]RP[dA]-NH2), which “Solubility:” value is on record?
Its value is 0.75 mg/ml in water.
